Like-named read-outs stand apart in the source and are kept apart here.
Assays:
[1] = Pharmacokinetics in the rat, I.V. and P.O.; assay type: in vivo
Method: To evaluate the metabolism of 3-MP, ex vivo plasma and liver homogenate studies were performed across species (rat and human), and in vivo pharmacokinetic studies were performed in rats following intravenous (I.V.) and oral (P.O.) administration of 3-MP (5 mg/kg) to time-dependently follow its disappearance from the plasma compartment.
Fig. 5 3-MP pharmacokinetics. 3-MP was administered to rats via the intravenous (I.V.) and oral (P.O.) routes, and time-dependent plasma levels were obtained and subjected to LC–MS/MS analysis (n = 3/group). Pharmacokinetic profile of 3-MP following a 5 mg/kg dose by either the I.V. or P.O route. Time-dependent plasma concentrations of 3-MP (n = 3/group)

[2] = Ex vivo plasma stability, rat; assay type: in vitro ADME; conditions: 100 μg/ml, 37 °C, 180 min
Method: Ex vivo evaluations of drug plasma and liver microsomal time-dependent breakdown are routinely undertaken to initially characterize the metabolic stability of new pharmacological compounds and were performed by WuXi AppTec (Shanghai, China; Study No. 424847–20,211,214-MMS). Rat and human plasma and liver microsomes were purchased from Xenotech (Sprague Dawley rat, Catalog no. R1000; BioIVT, Westbury, NY) or Corning (mixed human, Catalog no. 452117; Sigma). Rat and human plasma was incubated at 37 °C on a shaker and spiked with 3-MP (100 μg/ml, n = 3). Thereafter, samples were time-dependently (0 to 180 min) removed, immediately frozen (− 80 °C), and subjected to LC–MS/MS analysis at a later time.

[3] = system: LPS-induced cytokines (TNF-α, IL-6, IL-10, IL-13) in plasma and cerebral cortex; experiment: Systemic and brain LPS anti-inflammatory study in rats; assay type: in vivo; conditions: rat, 1 h pre-treatment, 3-MP 13.23 and 26.47 mg/kg I.P., pomalidomide 25 mg/kg I.P., LPS 1 mg/kg I.P., 4 h
[4] = Sprague Dawley, rat, 1 μM
[5] = system: TNF-α in LPS-challenged human PBMCs; experiment: TNF-α in media of LPS-challenged human PBMCs; assay type: cell-based; conditions: 10 ng/ml LPS, 24 h, 3-MP 0 to 30 μM, vs LPS alone
Method: Human peripheral blood mononuclear cells (PBMCs), purchased from ATCC (Cat no. PCS-800–011, Lot no. 81215231, Manassas, VA, USA), were washed with ice-cold HBSS (ATCC 30–2213) containing 10% fetal bovine serum (FBS: ATCC 30–2020) and used for the experiment directly. The washed cells were suspended and maintained in RPMI media supplemented with 10% FBS, penicillin 100 U/mL, and streptomycin 100 µg/mL at 37 °C and 5% CO2. Approximately 5 × 10^5 cells were seeded into 24-well plates and allowed to equilibrate for 2 h. Pomalidomide or 3-MP, dissolved in 100% tissue culture grade dimethylsulfoxide (DMSO: Sigma Aldrich, St Louis, MO, USA), was then added to the wells. The final concentrations of drugs were 0.0, 0.6, 1.0, 10, 30, and 60 µM (n = 3–4 for each group). At 1 h after initiation of treatment, the cells were challenged with lipopolysaccharide (LPS, Sigma Aldrich, E.Coli 055:B5, Cat no. L4005-100MG, Lot no. 0000218759, Endotoxin Unit: 500,000 EU/mg, at a concentration of 10 ng/mL), and the media was collected after a further 24 h for evaluation of lactate dehydrogenase (LDH) activity as a marker of drug-induced cellular toxicity and concentrations of nitrite (In Vitro Toxicology Assay Kit, Lactic Dehydrogenase based, Promega, Cat no. G7891, Madison, WI, USA) (Griess Reagent System, Promega, Cat no. G2930) and TNF-α (human TNF-α ELISA MAX™ Deluxe Set Cat no. […]

[6] = target: T1, Adrenergic Alpha2A receptor (Homo sapiens, UniProt P08913); experiment: PDSP radioligand binding; conditions: read-out: 3-MP concentration required to induce 50% inhibition of PDSP radioligand binding
T1 construct: NIMH Psychoactive Drug Screening Program (PDSP)
Method: (§1) To evaluate potential binding at classical neurological drug targets, 3-MP and 3,6’-DP were submitted to the National Institute on Mental Health (NIMH) Psychoactive Drug Screening Program (PDSP: Univ. N Carolina, Chapel Hill, NC, USA < https://pdspdb.unc.edu/pdspweb/ >) as powdered samples in the provided vials. The materials were then prepared at the PDSP in 10% DMSO, subjected to multiple assay screens, and processed as per the PDSP Assay Protocol Book (Version 3, March 2018). Compounds that exceeded an initial 10 uM binding threshold were then delegated for secondary dose–response analysis. This screen comprised a 45-target comprehensive panel of common brain receptor and transporter drug targets.

Dopamine D4 receptor = Dopamine D4 receptor (Homo sapiens, UniProt P21917); experiment: PDSP radioligand binding; conditions: read-out: 3-MP concentration required to induce 50% inhibition of PDSP radioligand binding
Method: as §1

κ-opioid receptor = κ-opioid receptor (Homo sapiens, UniProt P41145); experiment: PDSP radioligand binding; conditions: read-out: 3-MP concentration required to induce 50% inhibition of PDSP radioligand binding
Method: as §1

[7] = target: T2, Adrenergic Beta2 receptor (Homo sapiens, UniProt P07550); experiment: PDSP radioligand binding; conditions: read-out: 3-MP concentration required to induce 50% inhibition of PDSP radioligand binding
T2 construct: NIMH Psychoactive Drug Screening Program (PDSP)
Method: as §1

[8] = target: T3, Adrenergic Beta1 receptor (Homo sapiens, UniProt P08588); experiment: PDSP radioligand binding; conditions: read-out: 3-MP concentration required to induce 50% inhibition of PDSP radioligand binding
T3 construct: NIMH Psychoactive Drug Screening Program (PDSP)
Method: as §1

Serotonin 5-HT6 receptor = target: T4, Serotonin 5-HT6 receptor (Homo sapiens, UniProt P50406); experiment: PDSP radioligand binding; conditions: read-out: 3-MP concentration required to induce 50% inhibition of PDSP radioligand binding
T4 construct: NIMH Psychoactive Drug Screening Program (PDSP)
Method: as §1

[9] = target: T5, Benzodiazepine PBR receptor (Rattus norvegicus, UniProt P16257); experiment: PDSP radioligand binding; conditions: read-out: 3-MP concentration required to induce 50% inhibition of PDSP radioligand binding
T5 construct: NIMH Psychoactive Drug Screening Program (PDSP)
Method: as §1

Sigma 2 receptor = Sigma 2 receptor (Rattus norvegicus, UniProt Q5U3Y7); experiment: PDSP radioligand binding; conditions: read-out: 3-MP concentration required to induce 50% inhibition of PDSP radioligand binding
Method: as §1

[10] = target: T6, Serotonin 5-HT5A receptor (Homo sapiens, UniProt P47898); experiment: PDSP radioligand binding; conditions: read-out: 3-MP concentration required to induce 50% inhibition of PDSP radioligand binding
T6 construct: NIMH Psychoactive Drug Screening Program (PDSP)
Method: as §1

in vitro = conditions: human, microsomes
[11] = iv, rat plasma, I.V. bolus 5 mg/kg

Chain of Dopamine D4 receptor (P21917 whole entry): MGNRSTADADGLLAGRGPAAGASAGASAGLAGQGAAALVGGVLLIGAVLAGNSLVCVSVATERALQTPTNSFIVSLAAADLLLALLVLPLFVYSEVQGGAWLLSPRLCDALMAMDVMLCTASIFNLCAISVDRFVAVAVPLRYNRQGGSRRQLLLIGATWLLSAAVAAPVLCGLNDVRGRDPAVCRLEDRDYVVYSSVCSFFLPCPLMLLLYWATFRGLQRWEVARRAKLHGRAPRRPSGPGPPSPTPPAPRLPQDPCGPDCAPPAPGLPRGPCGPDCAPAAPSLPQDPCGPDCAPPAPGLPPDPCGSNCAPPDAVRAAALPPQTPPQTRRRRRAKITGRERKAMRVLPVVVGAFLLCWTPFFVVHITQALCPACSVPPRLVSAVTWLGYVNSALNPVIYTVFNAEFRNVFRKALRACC
T3 sequence (P08588 whole entry): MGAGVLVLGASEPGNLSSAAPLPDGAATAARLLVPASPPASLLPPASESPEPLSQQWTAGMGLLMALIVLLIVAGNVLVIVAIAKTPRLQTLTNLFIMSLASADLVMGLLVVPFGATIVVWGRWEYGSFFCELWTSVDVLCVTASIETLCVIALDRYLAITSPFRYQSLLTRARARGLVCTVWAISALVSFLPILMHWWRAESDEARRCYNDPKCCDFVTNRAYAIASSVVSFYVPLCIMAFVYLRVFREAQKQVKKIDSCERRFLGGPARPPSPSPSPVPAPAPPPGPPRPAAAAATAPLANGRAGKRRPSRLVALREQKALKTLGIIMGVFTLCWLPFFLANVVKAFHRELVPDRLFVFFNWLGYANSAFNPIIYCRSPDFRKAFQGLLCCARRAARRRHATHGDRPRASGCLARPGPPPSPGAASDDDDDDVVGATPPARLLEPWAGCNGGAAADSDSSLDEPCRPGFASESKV
T6 sequence (P47898 whole entry): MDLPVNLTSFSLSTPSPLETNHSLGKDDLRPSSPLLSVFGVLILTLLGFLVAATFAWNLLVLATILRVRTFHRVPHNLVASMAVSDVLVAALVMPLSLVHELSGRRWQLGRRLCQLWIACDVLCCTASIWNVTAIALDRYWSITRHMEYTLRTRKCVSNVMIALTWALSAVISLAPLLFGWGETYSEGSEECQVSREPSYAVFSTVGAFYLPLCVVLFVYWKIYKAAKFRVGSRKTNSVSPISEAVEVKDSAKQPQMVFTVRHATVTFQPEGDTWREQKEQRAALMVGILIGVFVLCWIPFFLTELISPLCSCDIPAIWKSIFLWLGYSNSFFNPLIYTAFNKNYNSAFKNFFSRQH
T1 sequence (P08913 whole entry): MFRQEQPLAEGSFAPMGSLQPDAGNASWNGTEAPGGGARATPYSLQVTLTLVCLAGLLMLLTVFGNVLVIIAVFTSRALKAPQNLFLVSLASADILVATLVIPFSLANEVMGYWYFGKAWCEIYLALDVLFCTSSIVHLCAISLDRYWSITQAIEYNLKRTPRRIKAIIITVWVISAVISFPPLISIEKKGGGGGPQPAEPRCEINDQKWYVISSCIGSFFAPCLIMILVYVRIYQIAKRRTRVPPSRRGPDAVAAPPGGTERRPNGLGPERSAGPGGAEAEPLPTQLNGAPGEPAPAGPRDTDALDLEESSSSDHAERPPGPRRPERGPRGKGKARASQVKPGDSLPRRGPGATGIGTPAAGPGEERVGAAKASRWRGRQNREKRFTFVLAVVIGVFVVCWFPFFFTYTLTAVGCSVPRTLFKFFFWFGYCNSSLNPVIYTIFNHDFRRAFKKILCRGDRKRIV
Chain of κ-opioid receptor (P41145 whole entry): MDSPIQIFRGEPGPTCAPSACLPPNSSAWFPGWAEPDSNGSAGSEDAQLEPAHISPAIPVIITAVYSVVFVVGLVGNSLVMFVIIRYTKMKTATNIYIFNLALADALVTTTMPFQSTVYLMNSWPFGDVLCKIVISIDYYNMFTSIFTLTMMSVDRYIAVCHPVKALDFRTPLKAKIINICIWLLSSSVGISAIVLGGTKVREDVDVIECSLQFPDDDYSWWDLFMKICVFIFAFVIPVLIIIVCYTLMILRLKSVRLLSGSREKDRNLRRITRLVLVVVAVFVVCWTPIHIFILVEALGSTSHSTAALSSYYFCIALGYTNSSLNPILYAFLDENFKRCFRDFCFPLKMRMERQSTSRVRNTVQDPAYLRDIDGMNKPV
T4 sequence (P50406 whole entry): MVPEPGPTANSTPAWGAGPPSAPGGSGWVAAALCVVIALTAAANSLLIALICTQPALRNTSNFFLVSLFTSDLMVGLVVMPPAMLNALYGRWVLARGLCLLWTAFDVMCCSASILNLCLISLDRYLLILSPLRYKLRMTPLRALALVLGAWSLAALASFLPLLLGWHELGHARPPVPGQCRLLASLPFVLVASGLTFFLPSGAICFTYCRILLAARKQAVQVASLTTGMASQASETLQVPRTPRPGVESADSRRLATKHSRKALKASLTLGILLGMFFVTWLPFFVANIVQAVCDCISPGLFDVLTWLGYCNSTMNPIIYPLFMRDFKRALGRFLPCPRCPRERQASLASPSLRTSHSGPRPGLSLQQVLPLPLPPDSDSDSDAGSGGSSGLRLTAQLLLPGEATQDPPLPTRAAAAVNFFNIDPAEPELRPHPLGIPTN
Chain of Sigma 2 receptor (Q5U3Y7 whole entry): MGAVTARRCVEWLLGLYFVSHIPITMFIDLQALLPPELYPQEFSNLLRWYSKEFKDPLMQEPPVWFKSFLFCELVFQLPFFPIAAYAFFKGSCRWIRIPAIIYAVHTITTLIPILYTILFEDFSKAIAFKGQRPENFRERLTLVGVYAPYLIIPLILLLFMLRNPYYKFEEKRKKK
T2 sequence (P07550 whole entry): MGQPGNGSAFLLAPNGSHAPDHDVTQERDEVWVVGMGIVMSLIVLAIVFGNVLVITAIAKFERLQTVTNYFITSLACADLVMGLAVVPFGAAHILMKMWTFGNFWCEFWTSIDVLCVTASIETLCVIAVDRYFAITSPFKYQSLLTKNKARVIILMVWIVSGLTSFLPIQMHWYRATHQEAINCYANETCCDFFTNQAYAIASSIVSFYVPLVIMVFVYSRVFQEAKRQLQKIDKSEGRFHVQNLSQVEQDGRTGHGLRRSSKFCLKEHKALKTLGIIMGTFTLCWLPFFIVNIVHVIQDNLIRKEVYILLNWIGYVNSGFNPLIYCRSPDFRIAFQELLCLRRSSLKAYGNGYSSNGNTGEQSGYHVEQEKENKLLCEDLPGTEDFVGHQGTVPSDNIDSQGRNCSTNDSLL

Nc1cccc2c1C(=S)N(C1CCC(=O)NC1=O)C2=O (centres unmarked) [3-MP, 3-Monothiopomalidomide]
AUC(0-inf) [1, 11]: 15200 ng·h/mL
AUC(0-t) [1, 11]: 15100 ng·h/mL
C0 [1, 11]: 8150 ng/mL
clearance ([1]; plasma, iv, rat, I.V. bolus 5 mg/kg): 5.65 mL/min/kg
Vd ([1]; plasma, iv, rat, I.V. bolus 5 mg/kg, read-out: Vdss): 0.693 L/kg
AUC(0-inf) ([1]; po, rat plasma, P.O. 5 mg/kg): 5860 ng·h/mL
AUC(0-t) ([1]; po, rat plasma, P.O. 5 mg/kg): 5560 ng·h/mL
Cmax ([1]; po, rat plasma, P.O. 5 mg/kg): 1020 ng/mL
T1/2 ([1]; rat plasma, P.O. 5 mg/kg, 5 mg/kg): 3.21 h
half-life ([1]; rat, plasma, iv, 5 mg/kg, rat plasma, I.V. bolus 5 mg/kg): 1.56 h
bioavailability ([1]; rat, plasma, oral, 5 mg/kg, rat, P.O. vs I.V., 5 mg/kg): ~38.5%
half-life ([1]; rat, plasma, po, 5 mg/kg, rat plasma, P.O. 5 mg/kg): 3.2 h
Tmax ([1]; rat, plasma, po, 5 mg/kg, rat plasma, P.O. 5 mg/kg, read-out: Tmax): 1.67 h
Tmax ([1]; rat, plasma, po, 5 mg/kg, rat, oral gavage 5 mg/kg, read-out: time of peak concentration in plasma (converted)): 1.67 h
stability in rat plasma [2]: relatively stable
LPS-induced cytokine changes in plasma and cerebral cortex [3]: significantly mitigated
reduction of 3-MP levels following 60-min incubation ([4]; 60 min): 24.3%
Remaining (NCF = 60 min) ([4]; microsomes, 1 h): 116.4%
Remaining (T = 60 min) ([4]; microsomes, 1 h): 75.7%
TNF-α levels in media [5]: dose-dependently reduced
IC50 [6]: > 10 µM
IC50 (Dopamine D4 receptor): > 10 µM
IC50 (κ-opioid receptor): > 10 µM
IC50 [7]: > 10 µM
IC50 [8]: > 10 µM
IC50 (Serotonin 5-HT6 receptor): > 10 µM
IC50 [9]: > 10 µM
IC50 (Sigma 2 receptor): > 10 µM
IC50 [10]: > 10 µM
CLint scaled at 1 μM (in vitro): < 8.6 mL/min/kg
half-life at 1 μM (in vitro): > 2.42 h
microsomal CLint at 1 μM (in vitro): < 9.6 µL/min/mg
